Results on two molecules are retold here after patent US11311524B2, “Pharmaceutical composition used for treatment of HTLV-1-associated myelopathy” (DAIICHI SANKYO COMPANY, LIMITED, priority 2017, dated 2022).

For this test, the system named is HCT-4 cells. The experiment in a line: Proliferation/viability of HTLV-1 infected cell line HCT-4 (CCK-8). The test is classed as cell-based, human. Conditions: for Viability of HTLV-1 infected cells vs DMSO group: HCT-4, 1 μM, up to 21 days culture; for GI50: Homo sapiens, 336 h, 14 days culture, CCK-8. Here is the method: HCT-4 and HCT-5, which were HTLV-1 infected cell lines established from the cerebrospinal fluid of HAM patients, were donated from a professor, Tatsufumi Nakamura of the Nagasaki International University. HCT-4 was cultured in RPMI1640 culture medium containing 10% FBS (GIBCO), a 1% penicillin-streptomycin solution (Wako) and 100 U/mL IL-2 (Cell Science & Technology Institute, Inc.); whereas HCT-5 was cultured by using 10% FBS, 1% penicillin-streptomycin solution, 1% L-glutamine (SIGMA) and 200 U/mL IL-2. HCT-4 (3×10^6 cells) or HCT-5 (2.5×10^6 cells) were seeded in a culture medium (20 mL) in a 75 cm^2-culture flask. DMSO was added and compound A or B was added so as to provide a final concentration of 1 μM and culture was carried out at 37° C. in 5% CO2 conditions for 21 days while repeating subculture. In the subculture, a culture solution containing HCT-4 treated with DMSO so as to correspond to 3×10^6 cells, whereas a culture solution containing HCT-5 treated with DMSO so as to correspond to 2.5×10^6 cells were taken and each added to a new culture medium to obtain a final volume of 20 mL, and then, further compound A or B was added so as to obtain the same concentration as above. Day 7, 14 and 21 after initiation of culture, cells were recovered from the culture solution and the density of the cells was measured. In this manner, the effect of compound A or B on cell proliferation was examined. The density of cells was determined by seeding cultured cells in a 96-well plate in a volume of 100 μL per well, adding 10 μL of Cell counting kit-8 (CCK-8) (Dojindo Laboratories laboratory) per well, incubating the cells at 37° C. for 3 hours and measuring absorbance at 450 nm by a plate reader (iMark Microplate Reader, Biorad). The proliferation rates of cell groups treated with compound A or compound B were each calculated based on the cell group treated with DMSO as a control. Next, in a 6-well plate, HCT-4 (4.5×10^5 cells) or HCT-5 (3.75×10^5 cells) were seeded. A solution of compound A or B prepared with DMSO was serially diluted (4-fold dilution from 10000 nM was serially repeated 8 times) and added thereto. The cells were repeatedly subcultured at intervals of 3 to 4 days in a culture solution of 3 mL in total at 37° C. in 5% CO2 condition for 14 days. […] The cells cultured for 14 days in individual conditions were recovered and the density of the cells were measured. […] The density of cells was determined by seeding the cultured cells (100 μL) per well in a 96-well plate, adding 10 μL of CCK-8 per well, incubating the cells at 37° C. for 3 hours and measuring absorbance at 450 nm by a plate reader. The proliferation rate of a group treated with compound A or compound B was calculated based on the group treated with DMSO as a control.

Turning to `Cc1cc(C)c(CNC(=O)c2cc(Br)c3c(c2C)O[C@@](C)([C@H]2CC[C@H](N(C)C)CC2)O3)c(=O)[nH]1` [compound A, (2R)-7-bromo-2-[trans-4-(dimethylamino)cyclohexyl]-N-[(4,6-dimethyl-2-oxo-1,2-dihydropyridin-3-yl)methyl]-2,4-dimethyl-1,3-benzodioxole-5-carboxamide], the “Viability of HTLV-1 infected cells vs DMSO group” value is listed as “significantly reduce the viability” and the GI50 stood at 7.63 nM.
The matching figures for `Cc1cc(C)c(CNC(=O)c2cc(Cl)c3c(c2C)O[C@@](C)([C@H]2CC[C@H](N(C)C)CC2)O3)c(=O)[nH]1` [compound B, (2R)-7-chloro-2-[trans-4-(dimethylamino)cyclohexyl]-N-[(4,6-dimethyl-2-oxo-1,2-dihydropyridin-3-yl)methyl]-2,4-dimethyl-1,3-benzodioxole-5-carboxamide]: “significantly reduce the viability” and 5.92 nM.
